From PubChem BioAssay (NCI)
Several values for one entry are separate records, joined by “and”; a condition that tells them apart may be missing. Equal entries are not always repeated.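 Where inhibition never reached the appropriate level, the endpoint shown equals the highest concentration tested. Otherwise, values were interpolated linearly from a five-concentration, 48-hour dose response in 96-well plates. GI50: concentration for 50% inhibition of growth. At the TGI there is no net growth.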

Experiments:
Experiment in all cases: NCI tumour cell line growth inhibition, 48 h
UACC-62 melanoma = system: UACC-62 melanoma
A549 NSCLC = system: A549 NSCLC
HS 578T breast = system: HS 578T breast
MOLT-4 leukemia = system: MOLT-4 leukemia
A498 renal = system: A498 renal
U251 CNS = system: U251 CNS
SF-295 CNS = system: SF-295 CNS
DU-145 prostate = system: DU-145 prostate
OVCAR-8 ovarian = system: OVCAR-8 ovarian
MDA-N = system: MDA-N
P388 leukemia = system: P388 leukemia
SK-MEL-2 melanoma = system: SK-MEL-2 melanoma
HT29 colon = system: HT29 colon
EKVX NSCLC = system: EKVX NSCLC
786-0 renal = system: 786-0 renal
LXFL 529 NSCLC = system: LXFL 529 NSCLC
SK-MEL-28 melanoma = system: SK-MEL-28 melanoma
RXF 393 renal = system: RXF 393 renal
SN12K1 renal = system: SN12K1 renal

SMILES | TGI (UACC-62 melanoma) | GI50 (A549 NSCLC) | TGI (A549 NSCLC) | GI50 (HS 578T breast) | TGI (HS 578T breast) | GI50 (MOLT-4 leukemia) | GI50 (A498 renal) | TGI (A498 renal) | GI50 (U251 CNS) | TGI (U251 CNS) | TGI (SF-295 CNS) | GI50 (DU-145 prostate) | TGI (DU-145 prostate) | GI50 (OVCAR-8 ovarian) | TGI (OVCAR-8 ovarian) | TGI (MDA-N) | GI50 (SK-MEL-2 melanoma) | TGI (SK-MEL-2 melanoma) | TGI (HT29 colon) | GI50 (EKVX NSCLC) | also measured
CCCCCCCCCCCC[C@@H](O)[C@H]1CC[C@H]([C@H](O)CCCC[C@H](O)CCCCC[C@@H](O)CC2=C[C@H](C)OC2=O)O1 | 5.14 µM and 6.06 µM | 1.71 µM | 8.37 µM and 11.3 µM | 4.22 µM | 7.06 µM and 22.1 µM | 1.74 µM and 0.891 µM | 5.27 µM | 9.41 µM and 13.6 µM | 3.31 µM | 11.6 µM | 5.31 µM and 8.02 µM | 7.93 µM | 21.3 µM | 3.09 µM | 5.8 µM and 20.3 µM | 7.63 µM and 15.4 µM | 1.3 µM | 2.6 µM and 1.68 µM | 5.64 µM and 8.54 µM | 2.17 µM | TGI (MOLT-4 leukemia): 4.06 µM; TGI (P388 leukemia): 3.76 µM; TGI (EKVX NSCLC): 6.88 µM and 12.5 µM; TGI (786-0 renal): 6.42 µM and 8.45 µM; TGI (LXFL 529 NSCLC): 10.8 µM; GI50 (SK-MEL-28 melanoma): 3.77 µM; TGI (SK-MEL-28 melanoma): 6.19 µM and 9.93 µM; TGI (RXF 393 renal): 8.02 µM
CCN(CC)CCOc1cccc2nc3c(cc12)Cn1c-3cc2c(c1=O)COC(=O)C2(O)CC (stereo unspecified) | 0.955 µM and 1.56 µM | 0.787 µM and 2.06 µM | 20.4 µM and 13 µM | 83.9 µM | > 100 µM | 0.103 µM | 2.13 µM and 3.91 µM | 6.74 µM and 18.2 µM | 0.0867 µM and 0.358 µM | 1.43 µM and 11.1 µM | 5.19 µM and 9.4 µM | 0.423 µM | 3.77 µM | 1.24 µM and 1.47 µM | 30.8 µM and 15.4 µM | 35.1 µM | 12.3 µM and 17.9 µM | 25.3 µM and 39.6 µM | 12.7 µM and 13.5 µM | 7.37 µM | GI50 (UACC-62 melanoma): 0.147 µM and 0.273 µM; GI50 (SF-295 CNS): 0.261 µM and 0.691 µM; GI50 (MDA-N): 13 µM; GI50 (HT29 colon): 2.19 µM and 2.44 µM; TGI (EKVX NSCLC): > 40 µM; GI50 (786-0 renal): 0.595 µM; TGI (786-0 renal): 11.7 µM; GI50 (SN12K1 renal): 1.03 µM and 1.18 µM; TGI (SN12K1 renal): 11.4 µM and 14.1 µM; GI50 (SK-MEL-28 melanoma): 7.51 µM and 12.3 µM; TGI (SK-MEL-28 melanoma): 20.7 µM and 30 µM; GI50 (RXF 393 renal): 1.4 µM and 10.6 µM; TGI (RXF 393 renal): 6.08 µM and 28.7 µM
